The text below walks through data of PMC6203852 (British Journal of Cancer, 2018).

The conditions of data set [1]: cited from earlier work.
On the set-up of data set [2]: method as in PMID 22532167. The conditions noted are these: animal models; cited from earlier work.
Data set [3] can be described thus: Plasma pharmacokinetics of ARQ 501 (β-lapachone) after intravenous ARQ 761 (UHPLC-MS/MS, two-compartment model). It is filed as in vivo, human. Particulars: plasma ARQ 501 after ARQ 761 infusions.
Protocol: During the first and fourth infusions of study drug, serial blood samples for determination of plasma ARQ 501 levels were drawn at the following time points: pre-infusion, infusion start, 15 min, 30 min, 60 min, 120 min (for the 2-h infusion cohort), 15 min post-infusion, 1 h post-infusion, 3 h post-infusion, 5 h post-infusion, 24 h post-infusion, 48 h post-infusion, and 168 h post-infusion. ARQ 501 plasma concentrations were determined using an ultra-high-performance liquid chromatography tandem mass spectrometric analytical method. This method utilised a Nexera Series UHPLC system (Shimadzu Corporation, Kyoto, Japan), which was interfaced with a Sciex QTRAP 5500 mass spectrometer (Foster City, CA, USA).
Sample preparation included a liquid–liquid extraction of ARQ 501 and the internal standard dihydrotanshone (IS) from plasma. Briefly, 100 µL of a 700 ng/mL solution of IS in methanol:acetonitrile (3:1) was added to a 2-mL Eppendorf tube and spun to dryness on a CentriVap benchtop vacuum concentrator (Labconco, Kansas City, USA). To the dried tube, 25-µL aliquots of plasma, 25-µL of blank plasma, and 200-µL de-ionised water were added and vortex mixed. To the resultant solution, a 1-mL aliquot of methyl tert-butyl ether:ethyl acetate (1:1) was added. The mixture was shaken for 10 min at 2500 rpm on a VWR shaker. Samples were then centrifuged for 10 min at 4000 rpm at 4.0 °C. […]

As to `CC1(C)CCC2=C(O1)c1ccccc1C(=O)C2=O` [ARQ 501, β-lapachone], the “Predominant dose-limiting toxicity (DLT)” value in data set [1] is given as “haemolytic anaemia”. Further, in data set [1] (earlier ARQ 501 compound, no reference given), the MTD was 390 mg/m^2. Also, the Duration of methemoglobinaemia in data set [2] is 5 min. Moreover, the “Accumulation, Dose 1 vs. Dose 4” value in data set [3] is on record as “does not accumulate to any appreciable extent”.
